molecular target: Mu-type opioid receptor (Homo sapiens) (UniProt P35372); assay: […] [35S]- GTPgammaS on Opioid receptor mu 1 in monkey brain membranes; type: cell membranes; details: Cercopithecidae, Membrane, target entry is the homologue from another species
Sequence (P35372 whole entry): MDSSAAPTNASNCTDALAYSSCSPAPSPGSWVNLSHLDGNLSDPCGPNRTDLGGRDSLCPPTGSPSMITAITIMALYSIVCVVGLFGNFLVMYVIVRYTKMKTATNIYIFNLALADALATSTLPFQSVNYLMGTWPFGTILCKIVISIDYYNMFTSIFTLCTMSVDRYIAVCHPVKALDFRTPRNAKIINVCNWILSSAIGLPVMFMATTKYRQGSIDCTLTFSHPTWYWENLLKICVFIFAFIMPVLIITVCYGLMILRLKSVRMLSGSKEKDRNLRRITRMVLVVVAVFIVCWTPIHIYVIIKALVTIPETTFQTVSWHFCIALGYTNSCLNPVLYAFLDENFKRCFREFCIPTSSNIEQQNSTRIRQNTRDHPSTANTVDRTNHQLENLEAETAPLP

SMILES | Ke [nM]
O=C(/C=C/c1ccc(Cl)cc1)N[C@@]12CCC(=O)[C@@H]3Oc4c(O)ccc5c4[C@@]31CCN(CC1CC1)[C@@H]2C5 | 0.37
O=C(/C=C/c1ccc(Cl)cc1)NC12CCC(=O)C3Oc4cccc5c4[C@@]31CCN(CC1CC1)[C@@H]2C5 (stereo partly drawn) | 0.28
COc1ccc2c3c1O[C@H]1C(=O)CC[C@@]4(NC(=O)/C=C/c5ccc(Cl)cc5)[C@@H](C2)N(CC2CC2)CC[C@]314 | 6.37

— ChEMBL document CHEMBL1133634, “3-Deoxyclocinnamox: the first high-affinity, nonpeptide mu-opioid antagonist lacking a phenolic hydroxyl group” (J Med Chem, 2000)
